{"source": "paper PMC4180753", "about": "“Evaluation of Inhibitory Action of Novel Non β-Lactam Inhibitor against Klebsiella pneumoniae Carbapenemase (KPC-2)” (PLoS ONE, 2014)", "key": {"KPC-2 [1]": {"biological_target": "T1, KPC-2 (Klebsiella pneumoniae, UniProt Q9F663)", "T1 sequence (Q9F663 25-293 limits assumed)": "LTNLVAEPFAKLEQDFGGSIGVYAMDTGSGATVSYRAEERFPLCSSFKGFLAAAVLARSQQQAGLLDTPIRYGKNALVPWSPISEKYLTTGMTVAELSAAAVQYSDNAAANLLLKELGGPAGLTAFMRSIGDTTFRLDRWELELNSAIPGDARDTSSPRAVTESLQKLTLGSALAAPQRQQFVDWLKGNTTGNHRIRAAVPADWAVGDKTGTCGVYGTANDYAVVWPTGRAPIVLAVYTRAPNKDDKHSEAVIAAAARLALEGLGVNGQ", "assay": "IC50 and Ki on purified KPC-2 (nitrocefin hydrolysis)", "assay_type": "biochemical", "parameters": "inferred from Ni-NTA purification and the pQE-2 vector) (N); made in house; host or cells: E. coli BL21 (DE3)", "settings": "for IC50: IC50, 1 nM purified KPC-2, 5 minutes pre-incubation, 30°C, pH 7.0, nitrocefin substrate (so in the source)", "description": "The 50% inhibitory concentration (IC50) was defined as the concentration of the inhibitor that inhibited hydrolytic activity of the enzyme by 50%.\nThe inhibition constant, Ki, was calculated from the IC50 value by applying the Cheng-Prusoff correction"}, "[2]": {"tested_on": "Klebsiella pneumoniae MTCC 432", "assay": "MIC, susceptible MTCC strain", "assay_type": "cell-based"}, "[3]": {"tested_on": "Klebsiella pneumoniae NP6 (clinical strain, KPC-2)", "assay": "microbe, parasite or virus in culture", "assay_type": "cell-based"}, "[4]": {"tested_on": "E. coli BL21 transformed with recombinant bla KPC-2 (pQE2-KPC-2)", "assay": "microbe, parasite or virus in culture", "assay_type": "cell-based, Escherichia coli", "settings": "for MIC of the carbapenem in combination with screened inhibitors (ZINC01807204 and ZINC02318494) / MIC: BL21 (pQE2-KPC-2); for MIC of the carbapenem in combination with screened inhibitors (ZINC01807204 and ZINC02318494) / reduction in MIC of the carbapenem in combination with screened compounds (ZINC01807204 and ZINC02318494): inhibitors 4 µg/ml; for MIC: inhibitors at fixed concentration of 4 µg/ml; for reduction in MIC of the carbapenem in combination with screened compounds (ZINC01807204 and ZINC02318494): KPC-2 expressing BL21 cells", "description": "A carbapenem resistant clinical strain of K. pneumoniae (NP6), previously characterised in our lab was procured from Jawaharlal Nehru Medical College (JNMC), Aligarh. […] Escherichia coli (DH5α) and E. coli BL21 (DE3) were used for cloning and protein expression experiments respectively. Minimum inhibitory concentration (MIC) and Confocal Laser Scanning Microscopy (CLSM) experiments were conducted on E.coli (BL21) cells expressing recombinant KPC-2 β-lactamase.\n(§1) The Minimum Inhibitory Concentrations (MIC) of recombinant BL21(DE3) cells harboring bla KPC-2 gene were determined by micro dilution method for different carbapenems alone and in combination with inhibitors (Clavulanic acid, Sulbactam, Tazobactam, ZINC01807204 and ZINC02318494) against BL21 control cells (cells with null vector). The recombinant E. coli cells were induced with IPTG prior to performing experiments. The antimicrobial agents, imipenem, meropenem, ertapenem, clavulanic acid, sulbactam and tazobactam were obtained from Sigma Aldrich (USA) and compounds ZINC01807204 and ZINC02318494 were procured from Vitas M (Netherlands). The inhibitors were taken at a fixed concentration of 4 µg/ml."}, "[5]": {"tested_on": "E. coli BL21 (Null plasmid)", "assay": "microbe, parasite or virus in culture", "assay_type": "cell-based", "settings": "Escherichia coli, inhibitors at fixed concentration of 4 µg/ml", "description": "as §1"}, "[6]": {"tested_on": "E. coli BL21 transformants harbouring bla KPC-2", "assay": "CLSM Live/Dead cell staining (PI/SYTO 9)", "assay_type": "cell-based, Escherichia coli", "settings": "4 hours", "description": "The control was taken without any drug. The media was inoculated and incubated at 37^οC for 4 hours. The media was removed and dishes were gently washed with MOPS (pH 7.0) to wash off extra media. Cells were then stained with propidium iodide (PI) and SYTO 9 (1∶1) for one hour. The fluorescence emission was observed using confocal scanning laser microscope FluoView FV1000 (Olympus, Tokyo, Japan). The optimal excitation wavelengths were […] and the optimal emission wavelengths were 500 and 610 nm, respectively. The images were obtained from atleast three randomly picked positions. The images of the control and in presence of known as well as novel inhibitors were averaged and compared."}, "[7]": {"assay": "Solubility observed in the inhibition assay", "assay_type": "physicochemical", "settings": "at higher concentrations; reason IC50 and Ki could not be determined"}, "KPC-2 [8]": {"biological_target": "T1, KPC-2", "settings": "nitrocefin as reporter substrate of KPC-2"}, "[9]": {"settings": "MTCC432, MTCC 432, inhibitors at fixed concentration of 4µg/ml, read-out: MIC"}, "[10]": {"settings": "sub-MIC meropenem in combination with the inhibitor (4 µg/ml)"}}, "note": "Like-named read-outs stand apart in the source and are kept apart here.", "data": [{"smiles": "O=C(O)[C@H]1/C(=C/CO)O[C@@H]2CC(=O)N21", "note": "[Clavulanic acid]", "values": [{"measurement": "Ki", "setting": "KPC-2 [1]", "value": 30, "unit": "µM"}, {"measurement": "IC50", "setting": "KPC-2 [1]", "value": 137, "unit": "µM"}]}, {"smiles": "C[C@@H](O)[C@H]1C(=O)N2C(C(=O)O)=C(S[C@@H]3CN[C@H](C(=O)Nc4cccc(C(=O)O)c4)C3)[C@H](C)[C@H]12", "note": "[Ertapenem, ertapenem]", "values": [{"measurement": "MIC", "setting": "[2]; [9]", "value": 0.0625, "unit": "µg/mL"}, {"measurement": "MIC", "setting": "[3]", "value": "≥ 256", "unit": "µg/mL"}, {"measurement": "MIC of the carbapenem in combination with screened inhibitors (ZINC01807204 and ZINC02318494)", "setting": "[4]", "value": 16, "unit": "µg/mL"}, {"measurement": "MIC", "setting": "[4]", "value": "≥128", "unit": "µg/mL"}, {"measurement": "MIC", "setting": "[4]; Escherichia coli", "value": 128, "unit": "µg/mL"}, {"measurement": "reduction in MIC of the carbapenem in combination with screened compounds (ZINC01807204 and ZINC02318494)", "setting": "[4]", "value": 8, "unit": "fold"}, {"measurement": "MIC", "setting": "[5]", "value": 0.25, "unit": "µg/mL"}]}, {"smiles": "C[C@@H](O)[C@H]1C(=O)N2C(C(=O)O)=C(SCCN=CN)C[C@H]12", "note": "[Imipenem, imipenem]", "values": [{"measurement": "MIC", "setting": "[2]; [9]", "value": 0.0625, "unit": "µg/mL"}, {"measurement": "MIC", "setting": "[3]", "value": "≥ 256", "unit": "µg/mL"}, {"measurement": "MIC of the carbapenem in combination with screened inhibitors (ZINC01807204 and ZINC02318494)", "setting": "[4]", "value": 16, "unit": "µg/mL"}, {"measurement": "MIC", "setting": "[4]", "value": "≥64", "unit": "µg/mL"}, {"measurement": "MIC", "setting": "[4]; Escherichia coli", "value": 64, "unit": "µg/mL"}, {"measurement": "reduction in MIC of the carbapenem in combination with screened compounds (ZINC01807204 and ZINC02318494)", "setting": "[4]", "value": "four fold"}, {"measurement": "MIC", "setting": "[5]", "value": 0.25, "unit": "µg/mL"}]}, {"smiles": "C[C@@H](O)[C@H]1C(=O)N2C(C(=O)O)=C(S[C@@H]3CN[C@H](C(=O)N(C)C)C3)[C@H](C)[C@H]12", "note": "[Meropenem, meropenem]", "values": [{"measurement": "MIC", "setting": "[2]; MTCC432", "value": 0.125, "unit": "µg/mL"}, {"measurement": "MIC", "setting": "[3]", "value": "≥ 256", "unit": "µg/mL"}, {"measurement": "MIC of the carbapenem in combination with screened inhibitors (ZINC01807204 and ZINC02318494)", "setting": "[4]", "value": 8, "unit": "µg/mL"}, {"measurement": "MIC", "setting": "[4]", "value": "≥64", "unit": "µg/mL"}, {"measurement": "MIC", "setting": "[4]; Escherichia coli", "value": 64, "unit": "µg/mL"}, {"measurement": "reduction in MIC of the carbapenem in combination with screened compounds (ZINC01807204 and ZINC02318494)", "setting": "[4]", "value": "8 fold and eight fold"}, {"measurement": "cells green with normal cell membranes", "setting": "[6]; sub-MIC concentration of meropenem alone", "value": "60–70%"}, {"measurement": "MIC", "setting": "[5]", "value": 0.125, "unit": "µg/mL"}]}, {"smiles": "CC1(C)[C@H](C(=O)O)N2C(=O)C[C@H]2S1(=O)=O", "note": "[Sulbactam]", "values": [{"measurement": "Ki", "setting": "KPC-2 [1]", "value": 23.2, "unit": "µM"}, {"measurement": "IC50", "setting": "KPC-2 [1]", "value": 106, "unit": "µM"}]}, {"smiles": "C[C@]1(Cn2ccnn2)[C@H](C(=O)O)N2C(=O)C[C@H]2S1(=O)=O", "note": "[Tazobactam]", "values": [{"measurement": "Ki", "setting": "KPC-2 [1]", "value": 21.6, "unit": "µM"}, {"measurement": "IC50", "setting": "KPC-2 [1]", "value": 98.8, "unit": "µM"}, {"measurement": "cells green with normal cell membranes", "setting": "[6]; [10]", "value": "60–70%"}]}, {"smiles": "CC(=O)Nc1ccc(S(=O)(=O)Nc2ccccc2NS(=O)(=O)c2ccc(NC(C)=O)cc2)cc1", "note": "[ZINC01807204]", "values": [{"measurement": "Ki", "setting": "KPC-2 [1]", "value": 43.8, "unit": "µM"}, {"measurement": "IC50", "setting": "KPC-2 [1]", "value": 200, "unit": "µM"}, {"measurement": "cells binding PI and Syto 9 (yellowish orange, affected)", "setting": "[6]; [10]", "value": "90–95%"}]}, {"smiles": "CC(C)[C@H](NS(=O)(=O)c1ccc2c(c1)Cc1cc(S(=O)(=O)N[C@H](C(=O)O)C(C)C)ccc1-2)C(=O)O", "note": "[ZINC02318494]", "values": [{"measurement": "solubility", "setting": "[7]", "value": "poor solubility at higher concentrations"}, {"measurement": "cells binding PI and Syto 9 (yellowish orange, affected)", "setting": "[6]; [10]", "value": "90–95%"}]}, {"smiles": "O=C(Cc1cccs1)N[C@@H]1C(=O)N2C(C(=O)O)=C(/C=C/c3ccc([N+](=O)[O-])cc3[N+](=O)[O-])CS[C@H]12", "note": "[nitrocefin]", "values": [{"measurement": "Km", "setting": "KPC-2 [8]", "value": "28 ± 6", "unit": "µM"}]}]}
